Source: US8497278B2, “Imidazo[1,2-a]pyridine compounds” (priority 2008, dated 2013)

Experiments:
[1] = target: T1, α1 subtype containing GABA-A receptors (Homo sapiens, UniProt P14867+P18507); experiment: Two-electrode voltage clamp electrophysiology in Xenopus oocytes, potentiation of GABA EC20 response, α1; assay type: cell-based; details: 100 nM compound; for activation at 0.1 µM: read-out: Percentage of potentiation alpha1
T1 construct: expressed in transfected cells; host or cells: Xenopus laevis oocytes, cRNA injected
Description: (§1) Electrophysiology protocol: Oocytes were prepared from adult female Xenopus laevis frogs. cRNA encoding human α1, α2, α3, α5, β3 and γ2L GABAA receptor subunits was injected into the cytoplasm of stage 5 or 6 oocytes using the Robocyte Robot (Multi Channel Systems, Reutlingen, Germany). Two-electrode voltage clamp recordings were made in 96-well plates using the Robocyte Robot. Oocytes were impaled using recording heads with two glass electrodes containing 1.5 M potassium acetate and 0.5 M KCl and held at a membrane potential of −80 mV. Oocytes were continually perfused with a ND96 solution (96 mM NaCl, 2 mM KCl, 0.1 mM CaCl2, and 5 mM HEPES, pH 7.5) using a Gilson 222 XL Liquid Handler and Gilson Minipuls 3 Peristaltic Pump (Gilson Medical Electronics, Middleton, Wis., USA). The protocol consisted of three 20-s applications of GABA that gave a 20% of the maximum response (EC20: 60 μM) to allow for headroom to determine a baseline GABA response. To assess the potentiation, oocytes were first exposed to a single 1 μM chlordiazepoxide (CDP) as a potentiation standard. Oocytes with insufficient expression levels (currents below threshold) or insufficient γ2L subunit incorporation (judged by rapid desensitization upon GABA application, or by insufficient potentiation by CDP) were not included in analysis. Following this control application, a given oocyte was exposed to test compounds at 100 nM concentrations. Only one concentration of one compound was tested per oocyte. […] One skilled in the art will recognize that subtypes contribute to the effects of GABA-A modulators. Such that compounds favoring different subtypes can have different therapeutic effects. The magnitude of modulation, for example, partial modulators can influence the effects in vivo. “++” indicates a greater modulation that “+” so that at any given subtype “++” inducates a greater amount of modulation for that subtype. In some embodiments, modulation favoring alpha 1 relative to alpha2 and/or alpha 3 can have sedative hypnotic effects. In other embodiments, compounds with reduced selectivity of alpha 1 can express anxiolytic effects with less sedation. Compounds with selectivity for alpha 5 can have memory/cognition enhancing effects.

[2] = target: T2, α2 subtype containing GABA-A receptors (Homo sapiens, UniProt P18507+P47869); experiment: Two-electrode voltage clamp electrophysiology in Xenopus oocytes, potentiation of GABA EC20 response, α2; assay type: cell-based; details: 100 nM compound; for activation at 0.1 µM: read-out: Percentage of potentiation alpha2
T2 construct: expressed in transfected cells; host or cells: Xenopus laevis oocytes, cRNA injected
Description: as §1

[3] = test system: central benzodiazepine receptors; experiment: Central benzodiazepine receptor binding (test of Speth et al.); details: 1000 nM of the compound
Procedure, shortened: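 Values are percent inhibition of central benzodiazepine receptor binding at 1000 nM compound (initial single-point screen at 1.0E-09, 1.0E-07 and 1.0E-05 M). Speth et al. binding test; nonspecific binding defined with excess unlabelled ligand and subtracted from total.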

T2 sequence (P47869 29-451): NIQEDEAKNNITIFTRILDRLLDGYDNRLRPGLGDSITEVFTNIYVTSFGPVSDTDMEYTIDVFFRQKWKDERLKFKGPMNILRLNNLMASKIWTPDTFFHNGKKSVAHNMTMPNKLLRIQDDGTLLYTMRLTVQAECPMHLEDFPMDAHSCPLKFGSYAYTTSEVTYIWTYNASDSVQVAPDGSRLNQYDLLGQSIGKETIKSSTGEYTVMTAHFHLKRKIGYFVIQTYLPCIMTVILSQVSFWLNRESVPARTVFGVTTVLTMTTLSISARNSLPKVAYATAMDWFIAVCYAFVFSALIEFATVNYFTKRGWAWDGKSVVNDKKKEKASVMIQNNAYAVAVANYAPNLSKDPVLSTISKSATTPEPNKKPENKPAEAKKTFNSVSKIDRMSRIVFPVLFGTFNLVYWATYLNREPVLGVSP
T2 sequence (P28472 26-473 partner): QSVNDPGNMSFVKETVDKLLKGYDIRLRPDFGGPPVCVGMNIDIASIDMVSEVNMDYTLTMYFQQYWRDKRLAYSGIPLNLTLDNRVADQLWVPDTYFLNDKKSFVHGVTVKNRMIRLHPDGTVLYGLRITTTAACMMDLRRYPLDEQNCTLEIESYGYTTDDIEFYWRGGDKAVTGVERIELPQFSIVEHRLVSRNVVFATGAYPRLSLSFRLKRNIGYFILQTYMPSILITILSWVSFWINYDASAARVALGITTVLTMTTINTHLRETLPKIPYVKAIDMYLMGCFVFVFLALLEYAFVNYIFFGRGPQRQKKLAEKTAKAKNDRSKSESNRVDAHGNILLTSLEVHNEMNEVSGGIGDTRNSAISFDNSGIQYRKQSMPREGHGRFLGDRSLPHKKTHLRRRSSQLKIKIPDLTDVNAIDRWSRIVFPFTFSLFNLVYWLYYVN
T2 sequence (P18507 40-475): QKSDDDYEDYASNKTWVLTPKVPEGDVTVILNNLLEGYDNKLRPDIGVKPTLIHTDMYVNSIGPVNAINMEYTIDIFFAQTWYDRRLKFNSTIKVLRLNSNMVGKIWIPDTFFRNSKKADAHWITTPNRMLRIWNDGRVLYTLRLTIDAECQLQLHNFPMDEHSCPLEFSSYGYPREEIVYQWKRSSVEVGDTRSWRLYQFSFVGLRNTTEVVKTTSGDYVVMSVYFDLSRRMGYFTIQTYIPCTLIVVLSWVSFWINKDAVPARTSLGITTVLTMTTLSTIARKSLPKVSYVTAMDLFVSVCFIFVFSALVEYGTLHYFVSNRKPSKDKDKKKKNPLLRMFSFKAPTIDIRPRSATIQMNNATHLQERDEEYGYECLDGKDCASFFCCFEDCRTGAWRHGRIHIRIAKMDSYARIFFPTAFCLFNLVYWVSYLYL
T1 sequence (P14867 28-456): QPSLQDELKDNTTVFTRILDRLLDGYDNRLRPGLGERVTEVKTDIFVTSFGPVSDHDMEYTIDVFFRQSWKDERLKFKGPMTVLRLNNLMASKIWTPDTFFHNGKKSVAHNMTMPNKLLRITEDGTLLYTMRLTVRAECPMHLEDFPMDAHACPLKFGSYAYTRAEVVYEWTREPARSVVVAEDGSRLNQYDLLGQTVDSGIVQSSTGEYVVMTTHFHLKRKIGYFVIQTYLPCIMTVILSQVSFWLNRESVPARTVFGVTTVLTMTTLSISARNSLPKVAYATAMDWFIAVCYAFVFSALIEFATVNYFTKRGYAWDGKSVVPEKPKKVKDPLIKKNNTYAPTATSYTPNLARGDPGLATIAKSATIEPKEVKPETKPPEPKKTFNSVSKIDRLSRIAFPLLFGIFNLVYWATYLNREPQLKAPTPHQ
T1 sequence (P28472 26-473 partner): as the sequence (P28472 26-473 partner) above
T1 sequence (P18507 40-475): as the sequence (P18507 40-475) above

Clc1ccc(-c2nc3ccccn3c2Cn2nc3ccccc3n2)cc1 [Compound 43, 2-((2-(4-chlorophenyl)H-imidazo[1,2-a]pyridin-3-yl)methyl)-2H-benzo[d][1,2,3]triazole]
Percentage of potentiation alpha1 [1]: 0 (percentage of potentiation is between about 10% to about −10%) | Percentage of potentiation alpha2 [2]: + (percentage of potentiation is greater than or equal to 10% but less than 50% in the presence of 100 nM of the compound) | % Inhibition at 1000 nM for CBZD [3]: ++ (percentage of inhibition of central BZD site binding is greater than 80% in the presence of 1000 nM of the compound)

Cn1ccnc1Cc1c(-c2ccc(Cl)cc2)nc2ccccn12 [Compound 206, 2-(4-chlorophenyl)-3-((1-methyl-1H-imidazol-2-yl)methyl)imidazo[1,2-a]pyridine]
activation at 0.1 µM [1]: ≥ 50% | activation at 0.1 µM [2]: ≥ 50% | % Inhibition at 1000 nM for CBZD [3]: ++ (percentage of inhibition of central BZD site binding is greater than 80% in the presence of 1000 nM of the compound)

Fc1ccc2nc(-c3ccc(Cl)cc3)c(Cn3nccn3)n2c1 [Compound 56, 3-((2H-1,2,3-triazol-2-yl)methyl)-2-(4-chlorophenyl)-6-fluoroH-imidazo[1,2-a]pyridine]
Percentage of potentiation alpha1 [1]: + (percentage of potentiation is greater than or equal to 10% but less than 50% in the presence of 100 nM of the compound) | Percentage of potentiation alpha2 [2]: ++ (percentage of potentiation is greater than or equal to 50% in the presence of 100 nM of the compound) | % Inhibition at 1000 nM for CBZD [3]: ++ (percentage of inhibition of central BZD site binding is greater than 80% in the presence of 1000 nM of the compound)

Cc1nn(C)nc1Cc1c(-c2ccc(Cl)cc2)nc2ccc(Cl)cn12 [Compound 229, 6-Chloro-2-(4-chlorophenyl)-3-((2,5-dimethyl-2H-1,2,3-triazol-4-yl)methyl)imidazo[1,2-a]pyridine]
activation at 0.1 µM [1]: 10 to 50% | activation at 0.1 µM [2]: 10 to 50% | % Inhibition at 1000 nM for CBZD [3]: ++ (percentage of inhibition of central BZD site binding is greater than 80% in the presence of 1000 nM of the compound)

O=C1CCN1Cc1c(-c2ccccc2)nc2ccc(Cl)cn12 [Compound 115, 1-(6-Chloro-2-phenyl-imidazo[1,2-a]pyridin-3-ylmethyl)-azetidin-2-one]
activation at 0.1 µM [1]: 10 to 50% | activation at 0.1 µM [2]: 10 to 50% | % Inhibition at 1000 nM for CBZD [3]: ++ (percentage of inhibition of central BZD site binding is greater than 80% in the presence of 1000 nM of the compound)

Fc1ccc2nc(-c3ccc(Cl)cc3)c(Cn3ccnn3)n2c1 [Compound 57, 3-((1H-1,2,3-triazol-1-yl)methyl)-2-(4-chlorophenyl)-6-fluoroH-imidazo[1,2-a]pyridine]
Percentage of potentiation alpha1 [1]: + (percentage of potentiation is greater than or equal to 10% but less than 50% in the presence of 100 nM of the compound) | Percentage of potentiation alpha2 [2]: ++ (percentage of potentiation is greater than or equal to 50% in the presence of 100 nM of the compound) | % Inhibition at 1000 nM for CBZD [3]: ++ (percentage of inhibition of central BZD site binding is greater than 80% in the presence of 1000 nM of the compound)

Clc1ccc(-c2nc3ccc(Cl)cn3c2Cn2ccnn2)cc1 [Compound 19, 3-((1H-1,2,3-triazol-1-yl)methyl)-6-chloro-2-(4-chlorophenyl)H-imidazo[1,2-a]pyridine]
Percentage of potentiation alpha1 [1]: + (percentage of potentiation is greater than or equal to 10% but less than 50% in the presence of 100 nM of the compound) | Percentage of potentiation alpha2 [2]: + (percentage of potentiation is greater than or equal to 10% but less than 50% in the presence of 100 nM of the compound) | % Inhibition at 1000 nM for CBZD [3]: ++ (percentage of inhibition of central BZD site binding is greater than 80% in the presence of 1000 nM of the compound)

CNC(=O)c1ncnn1Cc1c(-c2ccc(Cl)cc2)nc2cccnn12 [Compound 90, 1-((2-(4-chlorophenyl)imidazo[1,2-b]pyridazin-3-yl)methyl)-N-methyl-1H-1,2,4-triazole-5-carboxamide]
activation at 0.1 µM [1]: 10 to 50% | activation at 0.1 µM [2]: 10 to 50% | % Inhibition at 1000 nM for CBZD [3]: ++ (percentage of inhibition of central BZD site binding is greater than 80% in the presence of 1000 nM of the compound)
